US12310938B2, “Compositions and methods for weight loss maintenance” (priority 2017, dated 2025)
Entries after “also recorded” stand apart in the source; their conditions may differ.

Key:
[1] = Study 1: chronic ad libitum feeding trial, 28 days; assay type: in vivo; settings: VM/Dk mice, 10-20% by weight in standard chow; for bodyweight (weight loss and its maintenance): males and females, compared to SD or KD chow ad libitum
Experimental: FIGS. 1A-1H depict results of a chronic ad libitum feeding trial of male and female mice (Standard Diet Male (n=7)=SD-M; Ketogenic Diet Male (n=7)=KD-M; R/S 1,3 Butanediol Acetoacetate Diester (n=4)=KE-M; Standard Diet Female (n=7)=SD-F; Ketogenic Diet Female (n=6)=KD-F; R/S 1,3 Butanediol Acetoacetate Diester Female (n=4)=KE-F).
R,S 1,3-butanediol diacetoacetate (KE; 10-20% by weight mixed into standard chow) was administered to VM/Dk mice at for both males and females for 28 days. Standard rodent chow (SD) and ketogenic diet chow (KD) were administered to other VM/Dk mice ad libitum for comparison.

[2] = Study 5: weight loss to 20% with ketogenic agents vs caloric restriction, then return to ad libitum standard diet (weight loss maintenance); assay type: in vivo; settings: C57BL/6J; for food efficiency during weight loss maintenance (bodyweight regain proportional to calories consumed, FIG. 6): after cessation of agent, ad libitum SD, compared to caloric restriction and butanediol; for weight loss as ratio to kcal of ketogenic agent per total daily intake (FIGS. 4A-4B): compared to butanediol, BHB+MCT, BHB; for weight loss as a ratio to caloric intake/day (FIG. 5B): compared to BHB, BHB+MCT and CR groups
Source text: FIGS. 4A-4B depict results of weight loss induced by various ketogenic agents against regular SD caloric restriction, illustrating the effectiveness of various ketogenic agents for inducing weight loss. Treatments: Beta-Hydroxybutyrate (BHB); Beta-Hydroxybutyrate+Medium Chain Triglycerides (BHB+MCT); Butanediol (BD); R,S 1,3-Butanediol Acetoacetate Diester (KE).
FIGS. 5A-5B depict treatment timeline of weight loss study utilizing various ketogenic agents against SD caloric restriction, as well as evaluation of weight loss potency of each ketogenic agent. Treatments: Standard Diet ad-Libitum (SD-AL); Standard Diet Caloric Restriction (CR); Beta-Hydroxybutyrate (BHB); Beta-Hydroxybutyrate+Medium Chain Triglycerides (BHB+MCT); Butanediol (BD); R,S 1,3-Butanediol Acetoacetate Diester (KE). […] These reductions in bodyweight were at lower percentages of the ketogenic agent within the food. Additionally, KE animals reach target weight loss at much LOWER % of ketogenic agent integrated into the diet.
FIG. 6 depicts food efficiency during weight loss maintenance by calculating bodyweight regain proportional to calories consumed. Treatments: Standard Diet ad-Libitum (SD-AL); Standard Diet Caloric Restriction (CR); Beta-Hydroxybutyrate (BHB); Beta-Hydroxybutyrate+Medium Chain Triglycerides (BHB+MCT); Butanediol (BD); R,S 1,3-Butanediol Acetoacetate Diester (KE).
C57BL/6J animals were obtained. Prior to experimental initiation, animals were randomly assigned to one (1) of five (5) groups: Caloric Restriction with standard diet (SD), Beta-hydroxybutyrate with SD (BHB), BHB+Medium Chain Triglycerides with SD (BHB+MCT), 1,3-Butanediol with SD (BD), and R,S 1,3 Butanediol Acetoacetate Diester with SD (KE). All animals initiated weight loss by either reducing the amount of calories consumed (CR group) or adding various % of ketogenic agents to induce weight loss. There was no difference in bodyweight across groups at baseline. All animals underwent weight loss until 20% weight loss was achieved. Upon reaching 20% weight loss, animals were switched back onto ad-libitum SD.
Calories intake, bodyweight, and kcal of ketogenic agent in diet were recorded daily. In order to calculate the effectiveness of each agent to induce weight loss, weight loss as both grams and % weight loss, was compared as a ratio to the amount of kcal from each ketogenic agent compared to total kcals consumed a day.

[3] = Study 4: chronic feeding trial, 15 weeks; assay type: in vivo, Sprague Dawley Rats; settings: rats; for bodyweight (prevention of weight gain, maintaining a lower weight): in food, 25 g/kg/d, 15 weeks, compared to standard diet, BHB-S, S-MCT
Source text: FIG. 3 depicts results of a chronic feeding trial in rats. SD: standard rodent chow (fed ad libitum); LKE: low-dose R,S 1,3-butanediol diacetoacetate (approx. 5 g/kg/day in food); HKE: high-dose R,S 1,3-butanediol diacetoacetate (approx. 25 g/kg/day in food); BHB-S: beta-hydroxybutyrate salt (approx. 25 g/kg/day in food); S-MCT: 1:1 beta-hydroxybutyrate salt: medium chain triglyceride oil (approx. 25 g/kg/day).

[4] = Study 3: acute oral gavage trial, 7 days; assay type: in vivo, Sprague Dawley Rats; settings: rats
Experimental: FIGS. 2A-2B depict results of an acute gavage trial in rats.
R,S 1,3 butanediol diacetoacetate (KE) was administered to Sprague Dawley Rats by oral gavage (at 5 mL/kg, which may translate to about 300-700 mg/kg for a human). Water, BHB-salt, or BHB-salt+MCT mixture was administered to other Sprague Dawley Rats for comparison. Animals were provided ad libitum access to standard rodent chow.

[5] = agent in standard diet until 20% weight loss

| Molecule | white adipose tissue ([1]; compared to SD or KD) | bodyweight (weight loss and its maintenance) [1] | bodyweight (weight loss and its maintenance) ([1]; listed as ketone diester) | food efficiency during weight loss maintenance (bodyweight regain proportional to calories consumed, FIG. 6) [2] | food efficiency during weight loss maintenance (bodyweight regain proportional to calories consumed, FIG. 6) ([2]; listed as R,S 1,3-butanediol diacetoacetate) | speed of bodyweight reduction and % of agent in the diet needed (FIG. 5A) [2, 5] | weight loss as ratio to kcal of ketogenic agent per total daily intake (FIGS. 4A-4B) [2, 5] | weight loss as ratio to kcal of ketogenic agent per total daily intake (FIGS. 4A-4B) ([2]; agent in standard diet until 20% weight loss, listed as R,S 1,3 Butanediol Acetoacetate diester) | weight loss as a ratio to caloric intake/day (FIG. 5B) [2] | Approximate caloric intake compared to controls following adaptation to diet (weeks 13-15) ([3]; approx. 25 g/kg/day in food) [% kcal] | bodyweight (prevention of weight gain, maintaining a lower weight) [3] | bodyweight (prevention of weight gain, maintaining a lower weight) ([3]; listed as R,S 1,3 butanediol diacetoacetate) | Approximate caloric intake compared to controls following adaptation to diet (weeks 13-15) ([3]; low dose, approx. 5 g/kg/day in food) | bodyweight (prevention of weight gain, maintaining a lower weight) ([4]; gavage 5 g/kg once daily (5 mL/kg), ad libitum standard chow, compared to water, BHB-S, S-MCT, p<0.01) | calorie intake (self-restriction) ([4]; gavage once daily, ad libitum access to standard rodent chow) | food efficiency during weight loss maintenance (bodyweight regain proportional to calories consumed, FIG. 6) ([2]; listed as BHB) |
| --- | --- | --- | --- | --- | --- | --- | --- | --- | --- | --- | --- | --- | --- | --- | --- | --- |
| CC(=O)CC(=O)OCCC(C)OC(=O)CC(C)=O (stereo not shown) [KE, R,S 1,3-butanediol diacetoacetate] | induce reductions in white adipose tissue | induced and maintained long-term weight loss | lost significantly more bodyweight | more effective at inducing inefficiencies in kcal consumed; also recorded: had lingering effects on food efficiency and weight loss maintenance | help contribute to maintenance of weight loss after cessation of weight loss intervention by reducing food efficiency | induced a quicker reduction in bodyweight; also recorded: induces more rapid weight loss | superior per kcal used at inducing weight loss | superior weight loss agent per total average daily intake | significantly more potent at inducing weight loss when divided by total caloric intake | ~−7 | more effective than BHB-S or S-MCT at preventing weight gain and maintaining a lower weight | significantly lower bodyweight | ~+10% kcal | more effective than BHB-S, S-MCT, or Control at preventing weight gain and maintaining a lower weight; also recorded: significantly lower bodyweight | self-restricted calories | – |
| beta-hydroxybutyrate salt [BHB-S, reference compound] | – | – | – | help contribute to maintenance of weight loss after cessation of weight loss intervention by reducing food efficiency | – | – | – | – | could be explained by caloric restriction alone | ~−25 | – | – | – | – | – | more effective at inducing inefficiencies in kcal consumed; also recorded: had lingering effects on food efficiency and weight loss maintenance; also recorded: helped maintain weight loss post cessation of agent administration |
